Measurements from patent publication US9045482B2, “Pyrido[4,3-B]indoles and methods of use” (Medivation Technologies, Inc., priority 2009, dated 2015).

Tests used:
[1] = target: T1, human recombinant histamine H2 receptor (Homo sapiens, UniProt P25021); test: Histamine H2 radioligand binding (Aminopotentidine); settings: read-out: Binding data (Percentage Inhibition) Histamine Binding H2
T1 construct: expressed in transfected cells; host or cells: Chinese hamster ovary (CHO) K1 cells
Experimental: To evaluate in radioligand binding assays the activity of compounds of the invention, human recombinant histamine H2 receptor expressed in Chinese hamster ovary (CHO) K1 cells [Ruat, M., Proc. Natl. Acad. Sci. USA. (1990), 87(5):1658] in a 50 mM Phosphate buffer, pH 7.4 was used. Compounds of the invention were incubated with 0.1 nM […] for 120 min at 25° C. Non-specific binding was estimated in the presence of 3 μM Tiotidine. Receptor proteins were filtered and washed, the filters were then counted to determine […] specifically bound. Compounds were screened at 1 μM or lower, using 1% DMSO as vehicle. Biochemical assay results are presented as the percent inhibition of specific binding in Table 2.

[2] = target: T2, human recombinant adrenergic α1D receptor (Homo sapiens, UniProt P25100); test: Adrenergic α1D radioligand binding ([3H]Prozosin)
T2 construct: expressed in transfected cells; host or cells: human embryonic kidney (HEK-293) cells
T2 sequence (P25100 1-572): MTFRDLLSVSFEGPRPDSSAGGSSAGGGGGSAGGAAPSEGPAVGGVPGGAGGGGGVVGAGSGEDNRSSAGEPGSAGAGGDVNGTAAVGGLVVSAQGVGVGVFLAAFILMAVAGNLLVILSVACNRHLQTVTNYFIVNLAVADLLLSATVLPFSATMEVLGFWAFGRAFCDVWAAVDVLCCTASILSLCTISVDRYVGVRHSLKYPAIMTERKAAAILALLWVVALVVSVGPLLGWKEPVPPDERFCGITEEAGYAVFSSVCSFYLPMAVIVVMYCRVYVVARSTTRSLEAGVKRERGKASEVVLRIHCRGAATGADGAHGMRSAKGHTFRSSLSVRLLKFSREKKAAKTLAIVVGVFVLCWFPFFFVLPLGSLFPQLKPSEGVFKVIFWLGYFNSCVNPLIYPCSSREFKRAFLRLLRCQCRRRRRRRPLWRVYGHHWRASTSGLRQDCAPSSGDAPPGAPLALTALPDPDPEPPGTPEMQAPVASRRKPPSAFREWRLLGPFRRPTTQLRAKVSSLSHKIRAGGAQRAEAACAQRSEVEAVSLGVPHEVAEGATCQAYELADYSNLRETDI
Experimental: Compounds of invention were incubated with 0.6 nM [^3H]Prozosin for 60 min at 25° C. Non-specific binding was estimated in the presence of 10 μM phentolamine. Receptor proteins were filtered and washed, the filters were then counted to determine [^3H]Prozosin specifically bound. Compounds were screened at 1 μM or lower, using 1% DMSO as vehicle. Compounds of the invention were tested in this biochemical assay. Biochemical assay results for representative compounds were presented as the percent inhibition of specific binding in Table 3.

[3] = target: T3, human recombinant adrenergic α2A receptor (Homo sapiens, UniProt P08913); test: Adrenergic α2A radioligand binding ([3H]MK-912)
T3 construct: expressed in transfected cells; host or cells: insect Sf9 cells
T3 sequence (P08913 1-465): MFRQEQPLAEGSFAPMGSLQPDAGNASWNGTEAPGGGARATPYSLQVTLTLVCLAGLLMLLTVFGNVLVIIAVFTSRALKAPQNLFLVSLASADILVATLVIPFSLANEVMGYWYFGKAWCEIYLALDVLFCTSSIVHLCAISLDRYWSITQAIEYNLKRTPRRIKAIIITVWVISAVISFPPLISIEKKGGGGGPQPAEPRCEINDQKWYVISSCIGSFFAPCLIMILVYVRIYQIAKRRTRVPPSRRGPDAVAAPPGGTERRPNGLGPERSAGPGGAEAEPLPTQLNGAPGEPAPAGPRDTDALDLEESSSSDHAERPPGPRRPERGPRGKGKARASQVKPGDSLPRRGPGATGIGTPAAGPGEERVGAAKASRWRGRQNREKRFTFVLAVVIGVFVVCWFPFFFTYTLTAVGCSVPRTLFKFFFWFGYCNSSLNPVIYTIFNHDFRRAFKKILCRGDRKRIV
Experimental: To evaluate in radioligand binding assays the activity of compounds of the invention, human recombinant adrenergic α2A receptor expressed in insect Sf9 cells [Uhlen, S. et al., J. Pharmacol. Exp. Ther. (1994), 271:1558] in a modified Tris-HCl buffer (50 mM Tris-HCl, pH 7.4, 12.5 mM MgCl2, 2 mM EDTA) was used. Compounds of invention were incubated with 1 nM [^3H]MK-912 for 60 min at 25° C. MK912 was (2S-trans)-1,3,4,5′,6,6′,7,12b-octahydro-1′,3′-dimethyl-spiro[2H-benzofuro[2,3-a]quinolizine-2,4′(1′H)-pyrimidin]-2′(3′H)-one hydrochloride Non-specific binding was estimated in the presence of 10 μM WB-4101 (2-(2,6-dimethoxyphenoxyethyl)aminomethyl-1,4-benzodioxane hydrochloride). Receptor proteins were filtered and washed, the filters were then counted to determine [^3H]MK-912 specifically bound. Compounds were screened at 1 μM or lower, using 1% DMSO as vehicle. Compounds of the invention were tested in this biochemical assay. Biochemical assay results for representative compounds were presented as the percent inhibition of specific binding in Table 3.

T1 sequence (P25021 whole entry): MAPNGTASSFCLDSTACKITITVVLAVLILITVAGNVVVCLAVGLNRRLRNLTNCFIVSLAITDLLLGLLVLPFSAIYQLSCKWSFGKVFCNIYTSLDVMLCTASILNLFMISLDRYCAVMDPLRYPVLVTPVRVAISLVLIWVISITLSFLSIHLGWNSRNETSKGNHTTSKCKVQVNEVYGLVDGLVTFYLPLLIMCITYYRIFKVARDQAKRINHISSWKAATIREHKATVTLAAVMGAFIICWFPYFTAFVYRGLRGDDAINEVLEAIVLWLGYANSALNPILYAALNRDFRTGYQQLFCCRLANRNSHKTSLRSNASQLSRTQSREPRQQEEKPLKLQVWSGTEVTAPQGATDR

Structure (SMILES) | inhibition at 1 µM [1] [%] | Percent Inhibition of ligand binding Adrenergic α1D ([2]; 1 μM ligand conc.) [%] | Percent Inhibition of ligand binding Adrenergic α2A ([3]; 1 μM ligand conc.) [%] | Percent Inhibition of ligand binding Adrenergic α1D ([2]; 0.1 μM ligand conc.) [%] | Percent Inhibition of ligand binding Adrenergic α2A ([3]; 0.1 μM ligand conc.) [%]
Fc1ccc(CCn2c3c(c4cc(Cl)ccc42)C2CCCN2CC3)cc1 (stereo not shown) [Compound 1, 7-(4-fluorophenethyl)-10-chloro-2,3,5,6,7,11c-hexahydro-1H-indolizino[7,8-b]indole] | 15 | 15 | 22 |  | 
Fc1ccc(CCn2c3c(c4cc(Cl)ccc42)CN2CCCC2C3)cc1 (stereo not shown) [Compound 2, 10-(4-fluorophenethyl)-7-chloro-2,3,5,10,11,11a-hexahydro-1H-indolizino[7,6-b]indole] | 17 | 23 | 20 |  | 
O=C(Cn1c2c(c3cccnc31)CN1CCCC1C2)N1CCCCC1 (stereo not shown) [Compound 37, 1-(piperidin-1-yl)-2-(8,9,9a,10-tetrahydro-5H-pyrido[3′,2′:4,5]pyrrolo[3,2-f]indolizin-11(7H)-yl)ethanone] |  |  |  | 6 | 12
O=C(Cn1c2c(c3cccnc31)C1CCCN1CC2)N1CCCCC1 (stereo not shown) [Compound 38, 1-(piperidin-1-yl)-2-(2,3,5,6-tetrahydro-1H-pyrido[3′,2′:4,5]pyrrolo[2,3-g]indolizin-7(11cH)-yl)ethanone] |  |  |  | 4 | 4
